According to patent US20260021108A1, “USE OF INHIBITORS OF THE HIPPO SIGNALLING PATHWAY FOR THE TREATMENT OF CHRONIC NEPHROPATHIES” (INSTITUT NATIONAL DE LA SANTÉ ET DE LA RECHERCHE MÉDICALE, priority 2022, published 2026):

What was measured:
mIMCD-3 renal cells [1] = test: NPH-cytokine signature mRNA abundance (qRT-PCR) in confluent mIMCD-3 cells; type: cell-based, Mouse; details: n=3
Experimental: (§1) Mouse inner medullary collecting duct (mIMCD-3) cells were grown in DMEM/F-12 (1:1, GIBCO, 21331-020) supplemented with 10% FBS, 1% penicillin-streptomycin and 2 mM L-Glutamine (GIBCO, 25030-024). A total of 50,000 cells/cm^2 were seeded for 3 days on 12 well plate. Confluent mIMCD-3 cells were stimulated with 5 μM XMUMP-1 (Selleckchem, S8334), or 10 μM Lats-IN-1 (MedChemExpress, HY-138489) or 0.04% DMSO. For bacteria experiment, mIMCD-3 cells were starved overnight prior stimulation and then stimulated for 6 hours with 5 μM XMU-MP-1 or 0.04% DMSO with or without 1.108/mL UPEC.
(§2) Total RNAs were obtained from cells using RNeasy Mini Kit (Qiagen) and reverse transcribed using High Capacity cDNA Reverse Transcription Kit (Applied Biosystems) according to the manufacturer's protocol. Quantitative PCR were performed with iTaq™ Universal SYBR® Green Supermix (Bio-Rad) on a CFX384 C1000 Touch (Bio-Rad). Hprt, Sdha, Gapdh and Ppia were used as normalization controls. Each biological replicate was measured in technical duplicates.
Data are expressed as means+/−standard deviation. Differences between groups were evaluated using unpaired t test when only 2 groups were evaluated or one-way ANOVA followed, when significant (P<0.05), by the Tukey-Kramer test. The statistical analysis was performed using GraphPad Prism V8 software.

MDCK renal cells [2] = test: Ccl2 and Cxcl10 mRNA response to UPEC in confluent MDCK cells; type: cell-based, Dog; details: 6 hours, n=5
Experimental: (§3) Uropathogen E. coli (UTI89 strain, UPEC) bacteria strains were grown as previously described (Zychlinsky Scharff et al., 2019). Inactivation of bacteria was performed on bacteria resuspended at a concentration of 109/ml in PBS and heated at 60° C. for one hour.
Madin-Darby canine kidney cells (MDCK, kind gift from Prof. Kai Simons, MPI-CBG, Dresden, Germany) were cultured using DMEM (GIBCO, 41966-029) supplemented with 10% FBS (GIBCO, 10270-106) and 1% penicillin-streptomycin (GIBCO, 15140-122). A total of 200,000 cells/cm^2 were seeded for 10 days on 12 well plate (Corning, 353043). Confluent MDCK cells were stimulated for 6 hours with 5 μM XMU-MP-1 (Selleckchem, S8334) or 0.04% DMSO. […]
as §2, with “Hprt, Sdha, Gapdh and Ppia were used as normalization controls.” left out
(§4) Data are expressed as means+/−standard deviation. Differences between groups were evaluated using unpaired t test when only 2 groups were evaluated or one-way ANOVA followed, when significant (P<0.05), by the Tukey-Kramer test. […]

mIMCD-3 renal cells [3] = test: Inflammatory cytokine mRNA response to heat inactivated uropathogenic Escherichia coli (UPEC) in mIMCD-3 cells; type: cell-based, Mouse; details: confluent mIMCD-3 cells, 5 μM XMU-MP-1 and heat inactivated UPEC, 6 hours, n=7-10
Experimental: as §3
as §1, with “For bacteria experiment, mIMCD-3 cells were starved overnight prior stimulation and then stimulated for 6 hours with 5 μM XMU-MP-1 or 0.04% DMSO with or without 1.108/mL UPEC.” left out
as §2, with “Hprt, Sdha, Gapdh and Ppia were used as normalization controls.” left out
as §4

MDCK renal cells [4] = test: NPH-cytokine signature mRNA abundance (qRT-PCR) in confluent MDCK cells; type: cell-based, Dog; details: 5 μM XMU-MP-1, 6 hours, n=3-6
Experimental: Madin-Darby canine kidney cells (MDCK, kind gift from Prof. Kai Simons, MPI-CBG, Dresden, Germany) were cultured using DMEM (GIBCO, 41966-029) supplemented with 10% FBS (GIBCO, 10270-106) and 1% penicillin-streptomycin (GIBCO, 15140-122). A total of 200,000 cells/cm^2 were seeded for 10 days on 12 well plate (Corning, 353043). Confluent MDCK cells were stimulated for 6 hours with 5 μM XMU-MP-1 (Selleckchem, S8334) or 0.04% DMSO. For bacteria experiment, MDCK cells were starved overnight prior stimulation and then stimulated for 6 hours with 5 μM XMU-MP-1 or 10 μM Lats-IN-1 (MedChemExpress, HY-138489) with or without 1.108/mL UPEC. All cells were regularly tested for mycoplasma contamination and were mycoplasma-free.
as §2, §4

## O=C(N=c1sccn1Cc1ccccc1)c1c[nH]c2ncccc12 [Lats-IN-1, N-(3-benzylthiazol-2(3H)-ylidene)-1H-pyrrolo[2,3-b]pyridine-3-carboxamide]
mIMCD-3 renal cells [1]; 10 μM Lats-IN-1, 6 hours
  NPH-cytokine signature (Ctgf, Cyr61, Ccl2, Ccl5, Cx3cl1, Cxcl1, Cxcl10, Cxcl16, Cxcl17, Il1rn, Il33, Il34, Lgals9 mRNA abundance): suppresses partially NPH-cytokine signature
MDCK renal cells [2]; 10 μM Lats-IN-1 and UPEC
  inflammatory response to bacteria (Ccl2 and Cxcl10 mRNA abundance): reduces NPH-cytokine signature and inflammatory response to bacteria

## CN1C(=O)c2sccc2N(C)c2nc(Nc3ccc(S(N)(=O)=O)cc3)ncc21 [XMU-MP-1, 4-[(6, 10-Dihydro-5, 10-dimethyl-6-oxo-5H-pyrimido[5,4-b]thieno[3,2-e][1,4]diazepin-2-yl)amino]benzenesulfonamide]
mIMCD-3 renal cells [1]; 5 μM XMU-MP-1, 6 hours
  NPH-cytokine signature (Ctgf, Cyr61, Ccl2, Ccl5, Cx3cl1, Cxcl1, Cxcl10, Cxcl16, Cxcl17, Il1rn, Il33, Il34, Lgals9 mRNA abundance): suppresses NPH-cytokine signature
mIMCD-3 renal cells [3]
  inflammatory response to uropathogenic bacteria (cytokine mRNA abundance): blunts inflammatory response to uropathogenic bacteria
MDCK renal cells [4]
  NPH-cytokine signature (Ctgf, Cyr61, Ccl2, Ccl5, Cx3cl1, Cxcl10, Cxcl16, Cxcl17, Il1rn, Il34 mRNA abundance): reduces NPH-cytokine signature
MDCK renal cells [2]; 5 μM XMU-MP-1 and UPEC
  inflammatory response to bacteria (Ccl2 and Cxcl10 mRNA abundance): reduces NPH-cytokine signature and inflammatory response to bacteria
